Experimental data published in PMC11492828 (RSC Advances, 2024).
Like-named read-outs stand apart in the source and are kept apart here.

Tests used:
[1] = tested on: Aβ-induced SH-SY5Y cell line; assay: Anti-inflammatory and anti-oxidant activity in the Aβ-induced SH-SY5Y cell line; assay type: cell-based, human; settings: 2.5 to 40 μM, vs pioglitazone
[2] = tested on: human neuroblastoma (SH-SY5Y) cells; assay: Cytotoxicity/cell viability MTT assay; assay type: cell-based; settings: for Nature in cytotoxicity study: MTT
PPAR-γ = molecular target: T1, PPAR-γ (Homo sapiens, UniProt P37231); assay: PPAR-γ transactivation assay; assay type: cell-based; settings: SH-SY5Y cells, 1–16 μM
T1 sequence (P37231 1-505): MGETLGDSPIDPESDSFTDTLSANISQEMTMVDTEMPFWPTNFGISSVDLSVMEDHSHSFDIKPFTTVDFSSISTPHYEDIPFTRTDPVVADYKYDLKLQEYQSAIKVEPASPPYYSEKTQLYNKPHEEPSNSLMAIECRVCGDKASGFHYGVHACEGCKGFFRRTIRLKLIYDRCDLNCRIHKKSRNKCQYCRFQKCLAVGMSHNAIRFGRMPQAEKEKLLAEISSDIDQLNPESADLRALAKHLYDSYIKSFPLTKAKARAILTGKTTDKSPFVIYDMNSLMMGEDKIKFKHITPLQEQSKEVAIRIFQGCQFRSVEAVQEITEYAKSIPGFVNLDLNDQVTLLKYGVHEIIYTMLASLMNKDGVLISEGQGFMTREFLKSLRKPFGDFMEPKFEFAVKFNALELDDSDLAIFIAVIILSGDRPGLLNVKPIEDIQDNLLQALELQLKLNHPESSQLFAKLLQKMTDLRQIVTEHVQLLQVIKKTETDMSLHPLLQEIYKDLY

ROS = assay: Flow cytometric analysis of ROS in Aβ-induced SH-SY5Y cells; assay type: cell-based, human
IL-1β = assay: Flow cytometric analysis of IL-1β expression in Aβ-induced SH-SY5Y cells; assay type: cell-based, human
IL-6 = assay: Flow cytometric analysis of IL-6 expression in Aβ-induced SH-SY5Y cells; assay type: cell-based, human
TNF-α = assay: Flow cytometric analysis of TNF-α expression in Aβ-induced SH-SY5Y cells; assay type: cell-based, human
[3] = Homo sapiens, SH-SY5Y, read-out: IC50 MTT assay, SH-SY5Y cells
[4] = read-out: IC50 MTT assay, SH-SY5Y cells

COc1cc(/C=C/C(C)=N/O)ccc1OCC(=O)Nc1ccc(Cl)cc1 [Compound 4a, N-(4-Chlorophenyl)-2-(4-((1E,3E)-3-(hydroxyimino)but-1-en-1-yl)-2methoxyphenoxy)acetamide]
Anti-inflammatory and anti-oxidant activity (expression of pro-inflammatory cytokines and ROS) [1]: promising anti-inflammatory activity and anti-oxidant activity
IC50 [2, 3]: 108 µM
Nature in cytotoxicity study ([2]; SH-SY5Y cells): cell proliferative and non-cytotoxic
IC50 [2, 4]: > 100 µM
PPAR-γ transcriptional activity (PPAR-γ): dose-dependent enhancement

COc1cc(/C=C/C(C)=N/O)ccc1OCC(=O)Nc1ccc(C)cc1 [Compound 4b, 2-(4-((1E,3E)-3-(Hydroxyimino)but-1-en-1-yl)-2-methoxyphenoxy)-N-(p-tolyl)acetamide]
IC50 [2, 3]: 112 µM
Nature in cytotoxicity study ([2]; SH-SY5Y cells): cell proliferative and non-cytotoxic

COc1cc(/C=C/C(C)=N/O)ccc1OCC(=O)Nc1ccccc1 [Compound 4c, 2-(4-((1E,3E)-3-(Hydroxyimino)but-1-en-1-yl)-2-methoxyphenoxy)-N-phenylacetamide]
IC50 [2, 3]: 50.7 µM
Nature in cytotoxicity study ([2]; SH-SY5Y cells): cytotoxic

COc1cc(/C=C/C(C)=N/O)ccc1OCC(=O)Nc1ccccc1C [Compound 4e, 2-(4-((1E,3E)-3-(Hydroxyimino)but-1-en-1-yl)-2-methoxyphenoxy)-N-(o-tolyl)acetamide]
IC50 [2, 3]: 79.7 µM
Nature in cytotoxicity study ([2]; SH-SY5Y cells): cytotoxic

CC(/C=C/c1ccc(OCC(=O)Nc2ccccc2F)cc1)=N\O [Compound 4f, N-(2-Fluorophenyl)-2-(4-((1E,3E)-3-(hydroxyimino)but-1-en-1-yl)phenoxy)acetamide]
IC50 [2, 3]: 66.7 µM
Nature in cytotoxicity study ([2]; SH-SY5Y cells): cytotoxic

COc1cc(/C=C/C(C)=N/O)ccc1OCC(=O)Nc1cccc(C)c1 [Compound 4h, 2-(4-((1E,3E)-3-(Hydroxyimino)but-1-en-1-yl)-2-methoxyphenoxy)-N-(m-tolyl)acetamide]
Anti-inflammatory and anti-oxidant activity (expression of pro-inflammatory cytokines and ROS) [1]: promising anti-inflammatory activity and anti-oxidant activity
IC50 [2, 3]: 150 µM
Nature in cytotoxicity study ([2]; SH-SY5Y cells): cell proliferative and non-cytotoxic
IC50 [2, 4]: > 100 µM
PPAR-γ transcriptional activity (PPAR-γ): dose-dependent enhancement

CC(/C=C/c1ccc(OCC(=O)Nc2ccccc2)cc1)=N\O [Compound 4i, 2-(4-((1E,3E)-3-(Hydroxyimino)but-1-en-1-yl)phenoxy)-N-phenylacetamide]
IC50 [2, 3]: 82.3 µM
Nature in cytotoxicity study ([2]; SH-SY5Y cells): cytotoxic

CCc1ccc(CCOc2ccc(CC3SC(=O)NC3=O)cc2)nc1 (stereo not shown) [Pioglitazone, pioglitazone]
ROS% cell expression (ROS; Aβ 10 μM + 2.5 μM compound): 60.98%
ROS% cell expression (ROS; Aβ 10 μM + 5 μM compound): 53.96%
ROS% cell expression (ROS; Aβ 10 μM + 10 μM compound): 41.78%
ROS% cell expression (ROS; Aβ 10 μM + 20 μM compound): 21.01%
ROS% cell expression (ROS; Aβ 10 μM + 40 μM compound): 9.07%
IL-1β% cell expression (IL-1β; Aβ 10 μM + 2.5 μM compound): 70.21%
IL-1β% cell expression (IL-1β; Aβ 10 μM + 5 μM compound): 52.38%
IL-1β% cell expression (IL-1β; Aβ 10 μM + 10 μM compound): 32.36%
IL-1β% cell expression (IL-1β; Aβ 10 μM + 20 μM compound): 15.15%
IL-1β% cell expression (IL-1β; Aβ 10 μM + 40 μM compound): 10.76%
IL-6% cell expression (IL-6; Aβ 10 μM + 2.5 μM compound): 42.95%
IL-6% cell expression (IL-6; Aβ 10 μM + 5 μM compound): 30.23%
IL-6% cell expression (IL-6; Aβ 10 μM + 10 μM compound): 15.09%
IL-6% cell expression (IL-6; Aβ 10 μM + 20 μM compound): 9.51%
IL-6% cell expression (IL-6; Aβ 10 μM + 40 μM compound): 12.31%
TNF-α% cell expression (TNF-α; Aβ 10 μM + 2.5 μM compound): 67.8%
TNF-α% cell expression (TNF-α; Aβ 10 μM + 5 μM compound): 53.92%
TNF-α% cell expression (TNF-α; Aβ 10 μM + 10 μM compound): 24.85%
TNF-α% cell expression (TNF-α; Aβ 10 μM + 20 μM compound): 9.8%
TNF-α% cell expression (TNF-α; Aβ 10 μM + 40 μM compound): 5.5%
